From US8067372B2, “Modulation of angiogenesis by A-beta peptide fragments” (Alzheimer's Institute of America, Inc., priority 2005, dated 2011)
Entries after “also recorded” stand apart in the source; their conditions may differ.

Assays:
[1] = tested on: Human Umbilical Vein Endothelial Cells (HUVEC); assay: Capillary tube formation assay (HUVEC on Matrigel); format: cell-based; settings: for Total length of capillary tubes (percentage of control): ANOVA main effect: 0, 1, 5 and 10 μM doses
Experimental: All in-vitro experiments were performed using primary Human Umbilical Vein Endothelial Cells (HUVEC) at passages 3-4, purchased from American Tissue Type Culture Collection (ATCC, VA). Cells were cultured in F12K Medium (ATCC, VA) supplemented with 10% fetal bovine serum (Invitrogen, CA), 0.1 mg/ml Heparin and 0.03 mg/ml endothelial cell growth supplement (Sigma-Aldrich, MO). At all times, cells were maintained in a sterile cell culture incubator at 37° C. and 5% CO2.
HUVEC (7.5×10^4 cells/ml) in 500 μl of medium were seeded in 24-well plates, on top of a layer of Matrigel basement membrane matrix (Invitrogen, CA) in F12K medium (ATCC, VA) containing 4% serum (Invitrogen, CA), 0.1 mg/ml Heparin and 0.03 mg/ml endothelial cell growth supplement (Sigma-Aldrich, MO). Cells were incubated with peptides (or control conditions) for 24 hours. Control wells received the same volume of vehicle (DMSO) used to dilute the peptides. Network formation experiments were performed in triplicate, and at least 2 randomly chosen fields were photographed for each well using a 4× objective. Capillary length was measured using Image Pro Plus software (Media Cybernetic, Inc., MD).

[2] = tested on: VEGF-induced angiogenesis; assay: Rat corneal micropocket assay; format: in vivo; settings: 0.5, 2.5 and 5.0 μg with 200 ng VEGF; 7 days
Experimental: The vascular growth response was measured seven days post implantation. The lengths and widths of vessel outgrowths were measured and the angiogenic index (AI) calculated using the formula L×W=AI. Rats were perfused with colloidal carbon, eyes enucleated and fixed in 10% buffered formalin. Corneas were removed under an Olympus dissecting microscope and mounted on glass slides with Crystal Mount media.

[3] = tested at 1, 5 and 10 μM, 24 hours

Substance | Total length of capillary tubes (percentage of control): ANOVA main effect [1] | anti-angiogenic activity in capillary network formation [1, 3] | other results
DAEFRHDSGYEVAAQALVFFAEDVGSNK (listed as Homo sapiens) [Aβ1-28 Mutant 2] | no main effect |  | 
DAEFRHDSGYEVGGQGLVFFAEDVGSNK (listed as Homo sapiens) [Aβ1-28 Mutant 1] | no main effect |  | 
GSNKGAIIGLM (listed as Homo sapiens) [Aβ25-35] |  | not active | anti-angiogenic activity in capillary network formation ([1]; 5 μM): slightly active; anti-angiogenic activity in capillary network formation ([1]; 10 μM): not at 10 μM
HHHQKLVFF (listed as Homo sapiens) [Fragment 1] | significant main effect |  | inhibition of VEGF-induced angiogenesis in vivo (Angiogenic Index) [2]: appears antiangiogenic in vivo; Total length of capillary tubes (percentage of control): post hoc effect ([1]; 1, 5 and 10 μM, P<0.005): significant effects
LMVGGVVIA (listed as Homo sapiens) [Aβ34-42] |  | pro-angiogenic activity; also recorded: did not display any anti-angiogenic activity; also recorded: promoted angiogenesis in a dose dependent manner; also recorded: not active | 
LVFFAEDVGSNK (listed as Homo sapiens) [Aβ17-28] |  | did not display any anti-angiogenic activity; also recorded: not active | 
YEVHHQK (listed as Homo sapiens) [Aβ10-16] |  | did not display any anti-angiogenic activity; also recorded: inactive | 
YEVHHQKLVFFAEDVGSNKGAIIGLM (listed as Homo sapiens) [Aβ10-35] |  | most active | Total length of capillary tubes (percentage of control): post hoc difference from control ([1]; 5 and 10 μM doses, P<0.005, 24 hours, n≧8): significant differences
heparin [reference compound] |  |  | reversal of inhibition of capillary tube formation induced by Aβ1-42 ([1]; heparin 500 μg/ml and 1 mg/ml added with Aβ1-42, P<0.001 vs Aβ alone): effectively reverse; also recorded: effectively reversed inhibition; inhibition of angiogenesis (capillary tube formation) by heparin alone ([1]; heparin alone, 0.5 or 1 mg/ml): slight inhibition
